Measurements: patent US20250282734A1 (Bayer Aktiengesellschaft, priority 2021, published 2025)
Like-named read-outs stand apart in the source and are kept apart here. Marks after values point to notes of the source that are not given here.

Experiments:
[1] = Determination of exposure in rat after intragastric administration (Example 13); assay type: in vivo; details: for AUC(0-t): female, plasma, po, read-out: AUC(0-tlast); for AUC(0-t) / AUC(0-tlast)norm: free acid in rat plasma
Description: Determination of exposure after intragastric application of test compounds was performed in female conscious rats with a body weight of 0.2 kg (minimum) to 0.25 kg (maximum). The test compounds were applied as bolus via intragastric probe to unfed female rats in solution or suspension in the vehicle ethanol/solutol/water (v/v/v 10/40/50).
At the indicated timepoints between 8 min and 24 h after dosing, 150 μl blood were sampled via a catheter from the vena jugularis. The samples were treated with K-EDTA as anticoagulant and stored cooled until further processing (refrigerator, 4° C.). The samples were centrifuged (15 min, 3000 rpm), then an aliquot of 100 μL was taken from the supernatant (plasma), precipitated by addition of 400 μL cold acetonitrile or methanol (abs.) and frozen at −20° C. over night. The samples were centrifuged (15 min, 3000 rpm), then 150 μL of the clear supernatant were taken for analytical testing. Analytics were performed using an Agilent 1200 HPLC-system with LCMS/MS detection.
The applied dose of cholinate according to the invention was adjusted as compared to free acid according to the difference in molecular weight. The resulting equivalent doses were used for comparison.

[2] = Solubility free acid vs. salt, shake-flask method (Example 12); assay type: physicochemical
[3] = Dissolution profile, flow through cell in FeSSIF / FaSSIF (Example 16); assay type: physicochemical; details: 14 minutes, micronized
Description: Prior to the measurements, the samples were micronized using a jet mill (MC DECJET 30) under nitrogen, with a pressure of 4.5 Bar for the injector and 4.0 Bar grinding pressure.
Dissolution rates of the drug substance were then determined using a flow through cell (FTC) from Sotax. All experiments were conducted in triplicates.
Then, the respective medium (FaSSIF or FeSSIF) was pumped through the cell with a pump rate of 2 mL/min for a total time of 14 minutes, resulting in a total volume of 28 mL. This volume was collected in time increments of 2 minutes, leading to 7 collected fractions with 4 mL each. The drug substance concentration of each fraction was determined by HPLC (external standard).

[4] = Hygroscopy, dynamic vapour sorption (DVS) isotherms (Example 15); assay type: physicochemical
Description: Water sorption isotherms were determined using a DVS Resolution gravimetric sorption analyzer (London, UK), or a DVS Intrinsic instrument (Surface measurement Systems). The sample was dried for 1000 minutes at 0% relative humidity (R.H.). Afterwards the dry weight was recorded. […] The equilibrium criterion for each relative humidity set point was 0.002% per minute relative mass change as a function of time.

[5] = Solubility of cholinate vs free acid and other salts, shake-flask method (Example 14); assay type: physicochemical
Description: (§1) Preparation of FaSSIF (Fasted State Simulated Intestinal Fluid) blank solution: 4.2 g NaOH, 44.7 g NaH2PO4*2 H2O, and 61.86 g NaCl were dissolved in approximately 9.5 L demineralized water. Then, the pH of this solution was adjusted to 6.50+/−0.05 using HCl or NaOH, respectively. In the last step, the final volume was adjusted to 10.0 L by the addition of demineralized water.
Preparation of the final FaSSIF solution: 4.48 g SIF (Simulated Intestinal Fluids) powder (provider: biorelevant.com, Product code: FFF01 (May 2022)) were dissolved in approximately 500 mL FaSSIF blank solution, then the final volume was adjusted to 2.0 L by the addition of FaSSIF blank solution. After 2 hours, the solution was considered to be ready to use and was used within 48 hours.
as §1, with “FeSSIF (Fed” for “FaSSIF (Fasted”, “40.4” for “4.2”, “118.74” for “44.7”, “NaCl,” for “NaH2PO4*2 H2O,”, “82.4 mL glacial acetic acid” for “61.86 g NaCl”, “5.00+/−0.05” for “6.50+/−0.05”
Preparation of the final FeSSIF solution: 22.4 g SIF powder (provider: biorelevant.com, Product code: FFF01 (May 2022)) were dissolved in approximately 500 mL FeSSIF blank solution, then the final volume was adjusted to 2.0 L by the addition of FeSSIF blank solution. The solution was considered to be ready to use immediately after manufacturing and was used within 48 hours.

**Q.** Which AUC(0-t) ([1]; rat, 3 mg/kg, dose equiv. 3 mg/kg) does the source give for `O=C(O)c1cc(NC(=O)C2(c3ccc(C(F)(F)F)cc3F)CC2)ccc1-c1cnn(C2CCC2)c1` [free acid, 2-(1-cyclobutyl-1H-pyrazol-4-yl)-5-[({1-[2-fluoro-4-(trifluoromethyl)-phenyl]cyclopropyl}carbonyl)amino]benzoic acid] here?
**A.** 24 µg·h/mL

**Q.** And the AUC(0-t) ([1]; rat, 30 mg/kg, dose equiv. 30 mg/kg)?
**A.** 149 µg·h/mL

**Q.** What about the AUC(0-t) ([1]; rat, 100 mg/kg, dose equiv. 100 mg/kg) of the same compound?
**A.** 247 µg·h/mL

**Q.** What about the AUC(0-t) ([1]; rat, 150 mg/kg, dose equiv. 150 mg/kg) of the same compound?
**A.** 225 µg·h/mL

**Q.** And the AUC(0-tlast)norm ([1]; dose equiv. 3 mg/kg)?
**A.** 8.1 kg·h/L

**Q.** And the AUC(0-tlast)norm ([1]; dose equiv. 30 mg/kg)?
**A.** 5 kg·h/L

**Q.** What about the AUC(0-tlast)norm ([1]; dose equiv. 100 mg/kg) of the same compound?
**A.** 2.5 kg·h/L

**Q.** What about the AUC(0-tlast)norm ([1]; dose equiv. 150 mg/kg) of the same compound?
**A.** 1.5 kg·h/L

**Q.** What about the “Increase of plasma exposure of free acid with dose” value ([1]; rat, doses above 30 mg/kg) of the same compound?
**A.** much less than dose-proportional increase of exposure

**Q.** What about the solubility ([2]; Acetone, 25° C.) of the same compound?
**A.** 10100 mg/L

**Q.** And the solubility ([2]; Acetonitrile, 25° C.)?
**A.** 1290 mg/L

**Q.** And the solubility ([2]; Ethanol, 25° C.)?
**A.** 4260 mg/L

**Q.** And the solubility ([2]; PEG 400, 25° C.)?
**A.** 6830 mg/L

**Q.** And the solubility ([2]; Phosphate buffer pH 7, 25° C.)?
**A.** 87 mg/L

**Q.** And the solubility ([2]; Solutol/Ethanol/Water (40/10/50 V/V/V), 25° C.)?
**A.** 1300 mg/L

**Q.** What about the solubility ([2]; Water, 25° C., stirred overnight) of the same compound?
**A.** <1* mg/L

**Q.** And the “pH of the clear solution” value ([2]; solubility test in water, pH of water before stirring: 5.57)?
**A.** *pH of the clear solution: 4.6

**Q.** And the “Dissolution in FaSSIF, comparison in words” value ([3]; FaSSIF)?
**A.** dissolved slower

**Q.** What about the “Dissolution in FeSSIF, comparison in words” value ([3]; FeSSIF) of the same compound?
**A.** significantly slower

**Q.** And the “Change in mass [%], Desorption” value ([4]; 0% Relative humidity)?
**A.** 0.65%

**Q.** And the “Change in mass [%], Sorption” value ([4]; 0% Relative humidity)?
**A.** 0.06%

**Q.** And the “Change in mass [%], Desorption” value ([4]; 10% Relative humidity)?
**A.** 0.52%

**Q.** What about the “Change in mass [%], Sorption” value ([4]; 10% Relative humidity) of the same compound?
**A.** 0.08%

**Q.** And the “Change in mass [%], Desorption” value ([4]; 20% Relative humidity)?
**A.** 0.42%

**Q.** And the “Change in mass [%], Sorption” value ([4]; 20% Relative humidity)?
**A.** 0.10%

**Q.** What about the “Change in mass [%], Desorption” value ([4]; 30% Relative humidity) of the same compound?
**A.** 0.35%

**Q.** And the “Change in mass [%], Sorption” value ([4]; 30% Relative humidity)?
**A.** 0.12%

**Q.** And the “Change in mass [%], Desorption” value ([4]; 40% Relative humidity)?
**A.** 0.29%

**Q.** And the “Change in mass [%], Sorption” value ([4]; 40% Relative humidity)?
**A.** 0.14%

**Q.** What about the “Change in mass [%], Desorption” value ([4]; 50% Relative humidity) of the same compound?
**A.** 0.16%

**Q.** And the “Change in mass [%], Sorption” value ([4]; 50% Relative humidity)?
**A.** 0.17%

**Q.** What about the “Change in mass [%], Desorption” value ([4]; 60% Relative humidity) of the same compound?
**A.** 0.09%

**Q.** What about the “Change in mass [%], Sorption” value ([4]; 60% Relative humidity) of the same compound?
**A.** 0.20%

**Q.** And the “Change in mass [%], Desorption” value ([4]; 70% Relative humidity)?
**A.** 0.05%

**Q.** What about the “Change in mass [%], Sorption” value ([4]; 70% Relative humidity) of the same compound?
**A.** 0.23%

**Q.** And the “Change in mass [%], Desorption” value ([4]; 80% Relative humidity)?
**A.** 0.03%

**Q.** And the “Change in mass [%], Sorption” value ([4]; 80% Relative humidity)?
**A.** 0.29%

**Q.** What about the “Change in mass [%], Desorption” value ([4]; 90% Relative humidity) of the same compound?
**A.** 0.01%

**Q.** What about the “Change in mass [%], Sorption” value ([4]; 90% Relative humidity) of the same compound?
**A.** 0.44%

**Q.** And the “Change in mass [%], Desorption” value ([4]; 95% Relative humidity)?
**A.** 0.00%

**Q.** What about the “Change in mass [%], Sorption” value ([4]; 95% Relative humidity) of the same compound?
**A.** 0.65%

**Q.** Which results are given for `O=C([O-])c1cc(NC(=O)C2(c3ccc(C(F)(F)F)cc3F)CC2)ccc1-c1cnn(C2CCC2)c1.[K+]` [Potassium salt, Potassium 2-(1-cyclobutyl-1H-pyrazol-4-yl)-5-[({1-[2-fluoro-4-(trifluoromethyl)phenyl]cyclopropyl}carbonyl)amino]benzoate]?
**A.** Change in mass [%], Desorption ([4]; 0% Relative humidity): 67.05%; Change in mass [%], Sorption ([4]; 0% Relative humidity): 1.84%; Change in mass [%], Desorption ([4]; 10% Relative humidity): 36.40%; Change in mass [%], Sorption ([4]; 10% Relative humidity): 3.33%; Change in mass [%], Desorption ([4]; 20% Relative humidity): 21.86%; Change in mass [%], Sorption ([4]; 20% Relative humidity): 4.12%; Change in mass [%], Desorption ([4]; 30% Relative humidity): 15.18%; Change in mass [%], Sorption ([4]; 30% Relative humidity): 5.53%; Change in mass [%], Desorption ([4]; 40% Relative humidity): 11.85%; Change in mass [%], Sorption ([4]; 40% Relative humidity): 8.59%; Change in mass [%], Desorption ([4]; 50% Relative humidity): 9.24%; Change in mass [%], Sorption ([4]; 50% Relative humidity): 11.39%; Change in mass [%], Desorption ([4]; 60% Relative humidity): 6.66%; Change in mass [%], Sorption ([4]; 60% Relative humidity): 14.10%; Change in mass [%], Desorption ([4]; 70% Relative humidity): 4.31%; Change in mass [%], Sorption ([4]; 70% Relative humidity): 17.79%; Change in mass [%], Desorption ([4]; 80% Relative humidity): 2.92%; Change in mass [%], Sorption ([4]; 80% Relative humidity): 24.21%; Change in mass [%], Desorption ([4]; 90% Relative humidity): 1.40%; Change in mass [%], Sorption ([4]; 90% Relative humidity): 37.54%; Change in mass [%], Desorption ([4]; 95% Relative humidity): 0.00%; Change in mass [%], Sorption ([4]; 95% Relative humidity): 67.05%; DVS Dm @ 30% R.H. (Sorption) ([4]; summarized results, 30% R.H.): 5.5%; DVS Dm @ 50% R.H. (Sorption) ([4]; summarized results, 50% R.H.): 11.4%; DVS Dm @ 80% R.H. (Sorption) ([4]; summarized results, 80% R.H.): 24.2%; solubility ([5]; Buffer pH 4.5, 25° C.): 5 mgfree acid/L; solubility ([5]; Buffer pH 7, 25° C.): 684 mgfree acid/L; solubility ([5]; Buffer pH 8, 25° C.): >11594 mgfree acid/L; solubility ([5]; FaSSIF (37° C.) (Fasted State Simulated Intestinal Fluid)): 781 mgfree acid/L; solubility ([5]; FeSSIF (37° C.) (Fed State Simulated Intestinal Fluid)): 24 mgfree acid/L; solubility ([5]; Water, 25° C.): 6425 mgfree acid/L
